According to patent publication US5104854A (priority 1991, dated 1992):
Read-outs that look alike come from different tables or passages of the source. Residues, ends and D or L forms follow the SMILES beside them. No end group written: not given here.

Experiments:
[1] = system: vesicular stomatitis virus; type: cell-based
[2] = system: A/WSN strain of influenza virus; type: cell-based
[3] = system: intracellular virus protein synthesis; type: cell-based, Sindbis virus; settings: peptide 0.1 mg/ml
uninfected cells = settings: tissue culture cells
Semliki Forest virus = settings: 4 h, 1 mg/ml
[4] = system: viral nucleoprotein and matrix protein; type: cell-based, influenza virus
[5] = system: viral ribonucleoprotein particles (RNP)
Sequence of viral ribonucleoprotein particles (RNP) (P15682 whole entry): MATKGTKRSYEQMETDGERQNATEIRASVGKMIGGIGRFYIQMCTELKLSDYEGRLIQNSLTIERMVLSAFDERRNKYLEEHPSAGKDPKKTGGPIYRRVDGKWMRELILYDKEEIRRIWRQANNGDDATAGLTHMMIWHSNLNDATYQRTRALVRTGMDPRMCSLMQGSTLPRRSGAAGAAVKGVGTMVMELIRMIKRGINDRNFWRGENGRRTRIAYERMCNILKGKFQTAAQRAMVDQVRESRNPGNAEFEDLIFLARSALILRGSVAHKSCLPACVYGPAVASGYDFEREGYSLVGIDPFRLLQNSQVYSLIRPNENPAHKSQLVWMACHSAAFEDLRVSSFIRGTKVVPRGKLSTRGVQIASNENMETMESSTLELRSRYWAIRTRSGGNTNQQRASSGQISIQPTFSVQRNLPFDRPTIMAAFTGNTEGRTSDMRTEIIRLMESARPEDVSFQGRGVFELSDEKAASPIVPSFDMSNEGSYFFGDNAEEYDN

CCCCCCCC(=O)N[C@@H](CC(C)C)C(=O)N[C@H](C(=O)N1CCC[C@H]1C(=O)N[C@@H](Cc1ccc(O)cc1)C(=O)N[C@@H](C)C(=O)N[C@@H](CC(C)C)C(=O)N[C@@H](C)C(N)=O)[C@@H](C)O [OCTANOYLATED HEPTAPEPTIDE L-T-P-Y-A-L-A, L-T-P-Y-A-L-A] (HELM PEPTIDE1{[CCCCCCCC(=O)[*:2]].L.T.P.Y.A.L.A.[am]}$$$$V2.0)
effect on cells infected with vesicular stomatitis virus [1]: no effect
inhibition of vesicular stomatitis virus formation and secretion [1]: no inhibition
effect on cells infected with influenza [2]: no effect
inhibition of intracellular virus protein synthesis [3]: no inhibition
increase of inhibitory potency by addition of an octanoyl group (Sindbis virus): 10 fold
effect on uninfected cells (uninfected cells): no effect

LTPYAL-NH2 [HEXAPEPTIDE L-T-P-Y-A-L, L-T-P-Y-A-L]
Degree of Inhibition (Semliki Forest virus): 36%

N-G-S-L-Q-C-R-I (NGSLQCRI) [8 amino acid peptide lacking the two carboxy-terminal amino acids of HA2 (213-222)]
inhibition of influenza virus release ([2]; specificity tests, E2 (391-399) at 1 mg/ml in FIG. 2): non-inhibitory

N-G-S-L-Q-C-R-I-C-I-NH2 (NGSLQCRICI-NH2; cysteine pairing not given here) [HA2 (213-222)]
block of release of vesicular stomatitis virus ([1]; 200 μg/ml): 15%
half-maximal dose, inhibition of virus particle secretion [2]: less than 50 μg/ml
inhibition of release of influenza virus particles ([2]; 150 μg/ml peptide (RNP test)): 70%
inhibition of release of influenza virus ([2]; 200 μg/ml): 90%
block of virus particle secretion ([2]; 250 μg/ml (225 μM)): > 90%
IC50 ([2]; read-out: half-maximal dose, inhibition of virus particle secretion): < 45 µM
changes in synthesis of intracellular viral nucleoprotein and matrix protein ([4]; increasing amounts of peptide): No significant changes
Incorporation (% of control) ([4]; peptide level 20 μg/ml): 110 +/-12 % of control
Incorporation (% of control) ([4]; peptide level 50 μg/ml): 108 +/-12 % of control
Incorporation (% of control) ([4]; peptide level 100 μg/ml): 94 +/-9 % of control
Incorporation (% of control) ([4]; peptide level 200 μg/ml): 83 % of control
Incorporation (% of control) ([4]; peptide level 250 μg/ml): 97 % of control
block in the release of Sindbis virus (Sindbis virus; 200 μg/ml): no block
nucleoprotein in the RNP peak, % of the total cytoplasmic nucleoprotein [5]: 19%
